How the values were obtained:
FLT3 = FLT3 (Homo sapiens, UniProt P36888); test: Ambit kinase phage display ATP-binding-site ligand binding assay; conditions: read-out: % Inhibition of binding to ATP-binding-site ligand
Source text: (§4) This assay is based on ligand-affinity/protein kinase phage display and was employed essentially as described by Fabian et. al [Nature Biotech. […] In this assay, protein kinases are cloned into T7 bacteriophage which express the kinase fusion proteins on the phage capsid. T7 kinase-tagged phage are then screened for binding to ATP-binding-site ligands that have been immobilized on a solid support. Phage are screened for binding to the anchored ligands both in the presence of test compound and in its absence (control). Elution of the bound phage by free ligand (ATP-binding site ligand that is not immobilized on a solid support) followed by determination of the phage titre provides a reliable measure of the ability of test compounds to block binding of target kinases to resin-bound ATP-binding-site ligands.
(§5) T7 kinase-tagged phage strains were grown in parallel in microtiter plates in a proprietary bacterial host derived from E. Coli strain BL21. E. Coli were grown to a log phase, infected with T7 kinase-tagged phage, and incubated while shaking at 32° C. until bacterial lysis (approx. 90 min). Lysates were centrifuged (6,000 g) and filtered (0.2 μm). […] The phage titre of the eluates was measured by quantitative PCR or by plaque assays. […]

TXK = TXK (Homo sapiens, UniProt P42681); test: as above; conditions: read-out: percent inhibition of binding
Source text: as §4, §5

ERK2 = ERK2 (Homo sapiens, UniProt P28482); test: as above; conditions: read-out: percent inhibition of binding
Source text: (§6) In this assay, protein kinases are cloned into T7 bacteriophage which express the kinase fusion proteins on the phage capsid. T7 kinase-tagged phage are then screened for binding to ATP-binding-site ligands that have been immobilized on a solid support. Phage are screened for binding to the anchored ligands both in the presence of test compound and in its absence (control). Elution of the bound phage by free ligand (ATP-binding site ligand that is not immobilized on a solid support) followed by determination of the phage titre provides a reliable measure of the ability of test compounds to block binding of target kinases to resin-bound ATP-binding-site ligands.
(§7) T7 kinase-tagged phage strains were grown in parallel in microtiter plates in a proprietary bacterial host derived from E. Coli strain BL21. E. Coli were grown to a log phase, infected with T7 kinase-tagged phage, and incubated while shaking at 32° C. until bacterial lysis (approx. 90 min). Lysates were centrifuged (6,000 g) and filtered (0.2 μm). Small molecule ATP-binding-site-specific ligands were anchored to solid supports via a two step process beginning with biotin conjugation followed by treatment of the biotin/small molecule conjugate with streptavidin-coated magnetic beads. […] The phage titre of the eluates was measured by quantitative PCR or by plaque assays. […]

BTK = BTK (Homo sapiens, UniProt Q06187); test: as above; conditions: read-out: % Inhibition of binding to ATP-binding-site ligand
Source text: as §6, §7

CSNK2A2 = CSNK2A2 (Homo sapiens, UniProt P19784); test: as above; conditions: read-out: % Inhibition of binding to ATP-binding-site ligand
Source text: as §4, §5

ABL1(F317) = test: as above; conditions: 10 μM
Source text: as §6, §7

EPHA5 = EPHA5 (Homo sapiens, UniProt P54756); test: as above; conditions: read-out: percent inhibition of binding
Source text: as §6, §7

PIK3CG = PIK3CG (Homo sapiens, UniProt P48736); test: as above; conditions: read-out: percent inhibition of binding
Source text: as §4, §5

MET = MET (Homo sapiens, UniProt P08581); test: as above; conditions: read-out: percent inhibition of binding
Source text: as §4, §5

PDGFRB = PDGFRB (Homo sapiens, UniProt P09619); test: as above; conditions: read-out: percent inhibition of binding
Source text: as §6, §7

RPSGKA1 = RPSGKA1 (Homo sapiens, UniProt Q15418); test: as above; conditions: read-out: % Inhibition of binding to ATP-binding-site ligand
Source text: as §6, §7

EGFR(L747-T751del,Sins) = EGFR(L747-T751del,Sins) (Homo sapiens, UniProt P00533, DEL747-750/T751S); test: as above; conditions: read-out: percent inhibition of binding
Source text: as §4, §5

PHKG2 = PHKG2 (Homo sapiens, UniProt P15735); test: as above; conditions: read-out: percent inhibition of binding
Source text: as §4, §5

TYK2(Kin.Dom.1) = TYK2(Kin.Dom.1) (Homo sapiens, UniProt P29597); test: as above; conditions: read-out: percent inhibition of binding
Source text: as §6, §7

CLK3 = CLK3 (Homo sapiens, UniProt P49761); test: as above; conditions: read-out: percent inhibition of binding
Source text: as §6, §7

CSNK1G2 = CSNK1G2 (Homo sapiens, UniProt P78368); test: as above; conditions: read-out: % Inhibition of binding to ATP-binding-site ligand
Source text: as §6, §7

RSK3 = target: T1, RSK3 (Homo sapiens, UniProt Q15349); test: SignalChem radioisotope protein kinase assay; assay type: biochemical; conditions: 5 μl of 100 μM stock solution in 25 μl
T1 construct: purchased SignalChem
Source text: (§1) The various protein kinase targets to be employed in the kinase profiling assay were cloned, expressed and purified in-house at SignalChem (Richmond, BC, Canada) using proprietary methods. Quality control testing is routinely performed on each of the SignalChem targets to ensure compliance to acceptable standards. Protein substrates employed in the target profiling process were synthesized internally. ^33P-ATP was purchased from PerkinElmer. All other materials were of standard grade. Compound 10 (FIG. 4) was supplied to SignalChem in a powder form. It was reconstituted in DMSO to form a stock solution which was then diluted with 10% DMSO to form a working stock solution (100 μM) that was then profiled against the various protein kinase targets. The assay conditions for the various protein kinase targets were optimized to yield acceptable enzymatic activity. In addition, the assays were optimized to give high signal-to-noise ratio.
(§2) SignalChem uses a radioisotope assay format for profiling evaluation of protein kinase targets. Protein kinase assays were performed in triplicate at ambient temperature for 20-40 min (depending on the target) in a final volume of 25 μl according to the following assay reaction recipe: • Component 1: 5 μl of diluted active protein kinase target (˜10-40 nM final protein concentration in the assay) • Component 2: 5 μl of stock solution of substrate (1-5 μg of peptide or protein substrate) • Component 3: 5 μl of kinase assay buffer or protein kinase activator in kinase assay buffer • Component 4: 5 μl of Compound 10 (100 μM stock solution) or 10% DMSO • Component 5: 5 μl of 33P-ATP (25 μM stock solution, 0.8 μCi)
(§3) The assay was initiated by the addition of ^33P-ATP and the reaction mixture incubated at ambient temperature for 20-40 minutes, depending on the protein kinase target. After the incubation period, the assay was terminated by spotting 10 μl of the reaction mixture onto a Millipore Multiscreen plate. The Millipore Multiscreen plate was washed 3 times for approximately 15 minutes each in a 1% phosphoric acid solution. The radioactivity on the P81 plate was counted in the presence of scintillation fluid in a Trilux scintillation counter. Blank control, which included all the assay components except the addition of the appropriate substrate (replaced with equal volume of assay dilution buffer), was set up for each protein kinase target. The corrected activity for each protein kinase target was determined by removing the blank control value.

RSK2 = target: T2, RSK2 (Homo sapiens, UniProt P51812); test: SignalChem radioisotope protein kinase assay; assay type: biochemical; conditions: 5 μl of 100 μM stock solution in 25 μl
T2 construct: purchased SignalChem
Source text: as §1, §2, §3

BRAF = BRAF (Homo sapiens, UniProt P15056); test: SignalChem radioisotope protein kinase assay; assay type: biochemical; conditions: 5 μl of 100 μM stock solution in 25 μl
Source text: as §1, §2, §3

ERK1 = ERK1 (Homo sapiens, UniProt P27361); test: SignalChem radioisotope protein kinase assay; assay type: biochemical; conditions: 5 μl of 100 μM stock solution in 25 μl
Source text: as §1, §2, §3

PAK3 = PAK3 (Homo sapiens, UniProt O75914); test: SignalChem radioisotope protein kinase assay; assay type: biochemical; conditions: 5 μl of 100 μM stock solution in 25 μl
Source text: as §1, §2, §3

MAP4K5 = MAP4K5 (Homo sapiens, UniProt Q9Y4K4); test: Ambit kinase phage display ATP-binding-site ligand binding assay; conditions: read-out: percent inhibition of binding
Source text: as §4, §5

TYK2 = TYK2 (Homo sapiens, UniProt P29597); test: as above; conditions: read-out: % Inhibition of binding to ATP-binding-site ligand
Source text: as §4, §5

CDK5 = CDK5 (Homo sapiens, UniProt Q00535); test: as above; conditions: read-out: percent inhibition of binding
CDK5, sequence (Q00535 whole entry): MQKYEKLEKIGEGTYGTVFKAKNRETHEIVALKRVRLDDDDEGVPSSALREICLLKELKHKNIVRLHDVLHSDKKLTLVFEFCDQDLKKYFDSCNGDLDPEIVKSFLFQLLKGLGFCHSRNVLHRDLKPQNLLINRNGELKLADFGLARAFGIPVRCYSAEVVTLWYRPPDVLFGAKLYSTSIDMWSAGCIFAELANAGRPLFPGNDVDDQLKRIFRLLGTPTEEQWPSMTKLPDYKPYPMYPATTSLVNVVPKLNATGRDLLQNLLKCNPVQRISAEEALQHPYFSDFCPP
Source text: as §6, §7

CLK3, sequence (P49761 whole entry): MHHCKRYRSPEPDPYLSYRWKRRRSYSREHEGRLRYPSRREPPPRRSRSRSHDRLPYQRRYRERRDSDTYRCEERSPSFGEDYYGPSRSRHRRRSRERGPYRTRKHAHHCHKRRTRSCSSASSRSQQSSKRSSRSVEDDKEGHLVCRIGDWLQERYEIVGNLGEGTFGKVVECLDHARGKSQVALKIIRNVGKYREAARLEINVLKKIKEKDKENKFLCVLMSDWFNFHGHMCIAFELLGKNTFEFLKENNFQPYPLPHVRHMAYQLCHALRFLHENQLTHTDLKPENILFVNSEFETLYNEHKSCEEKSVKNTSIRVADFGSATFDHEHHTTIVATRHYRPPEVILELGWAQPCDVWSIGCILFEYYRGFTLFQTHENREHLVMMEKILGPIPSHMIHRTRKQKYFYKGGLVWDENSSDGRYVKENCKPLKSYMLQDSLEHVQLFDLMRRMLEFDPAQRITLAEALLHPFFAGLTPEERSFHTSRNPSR
MET, sequence (P08581 25-1390): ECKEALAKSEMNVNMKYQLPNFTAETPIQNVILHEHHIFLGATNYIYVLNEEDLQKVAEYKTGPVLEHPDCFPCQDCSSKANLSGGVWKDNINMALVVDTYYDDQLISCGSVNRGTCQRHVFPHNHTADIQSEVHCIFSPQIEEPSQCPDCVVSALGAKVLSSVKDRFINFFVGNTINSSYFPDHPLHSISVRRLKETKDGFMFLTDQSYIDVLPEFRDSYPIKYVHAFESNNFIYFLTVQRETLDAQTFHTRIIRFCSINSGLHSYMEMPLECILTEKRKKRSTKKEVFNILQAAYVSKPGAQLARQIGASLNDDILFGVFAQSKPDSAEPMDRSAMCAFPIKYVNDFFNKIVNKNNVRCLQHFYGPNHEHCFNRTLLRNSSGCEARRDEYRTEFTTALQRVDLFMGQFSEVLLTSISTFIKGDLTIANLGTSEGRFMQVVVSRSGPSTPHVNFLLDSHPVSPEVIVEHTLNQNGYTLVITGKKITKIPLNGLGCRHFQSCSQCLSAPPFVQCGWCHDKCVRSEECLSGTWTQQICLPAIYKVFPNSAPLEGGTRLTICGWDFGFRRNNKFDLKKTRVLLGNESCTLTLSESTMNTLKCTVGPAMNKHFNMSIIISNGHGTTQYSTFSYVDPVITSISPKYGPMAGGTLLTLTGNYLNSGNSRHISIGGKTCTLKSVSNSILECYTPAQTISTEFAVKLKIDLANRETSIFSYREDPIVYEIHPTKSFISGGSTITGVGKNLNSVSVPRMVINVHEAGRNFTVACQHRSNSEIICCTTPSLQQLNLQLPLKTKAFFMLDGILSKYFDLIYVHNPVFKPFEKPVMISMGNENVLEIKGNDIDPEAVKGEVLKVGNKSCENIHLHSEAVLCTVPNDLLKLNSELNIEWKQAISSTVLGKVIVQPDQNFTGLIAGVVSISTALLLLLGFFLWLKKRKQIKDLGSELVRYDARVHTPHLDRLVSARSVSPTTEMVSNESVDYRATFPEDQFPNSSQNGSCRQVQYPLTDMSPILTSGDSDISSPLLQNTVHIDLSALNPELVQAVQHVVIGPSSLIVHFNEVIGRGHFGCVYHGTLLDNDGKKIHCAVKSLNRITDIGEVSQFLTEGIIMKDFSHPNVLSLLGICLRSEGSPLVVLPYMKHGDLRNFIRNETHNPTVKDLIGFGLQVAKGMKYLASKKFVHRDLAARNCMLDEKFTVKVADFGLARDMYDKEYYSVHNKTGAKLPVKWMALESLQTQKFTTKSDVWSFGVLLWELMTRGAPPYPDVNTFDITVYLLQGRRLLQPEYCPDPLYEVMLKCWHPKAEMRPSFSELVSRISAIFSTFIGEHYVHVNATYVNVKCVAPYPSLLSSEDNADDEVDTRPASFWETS
TYK2, sequence (P29597 whole entry): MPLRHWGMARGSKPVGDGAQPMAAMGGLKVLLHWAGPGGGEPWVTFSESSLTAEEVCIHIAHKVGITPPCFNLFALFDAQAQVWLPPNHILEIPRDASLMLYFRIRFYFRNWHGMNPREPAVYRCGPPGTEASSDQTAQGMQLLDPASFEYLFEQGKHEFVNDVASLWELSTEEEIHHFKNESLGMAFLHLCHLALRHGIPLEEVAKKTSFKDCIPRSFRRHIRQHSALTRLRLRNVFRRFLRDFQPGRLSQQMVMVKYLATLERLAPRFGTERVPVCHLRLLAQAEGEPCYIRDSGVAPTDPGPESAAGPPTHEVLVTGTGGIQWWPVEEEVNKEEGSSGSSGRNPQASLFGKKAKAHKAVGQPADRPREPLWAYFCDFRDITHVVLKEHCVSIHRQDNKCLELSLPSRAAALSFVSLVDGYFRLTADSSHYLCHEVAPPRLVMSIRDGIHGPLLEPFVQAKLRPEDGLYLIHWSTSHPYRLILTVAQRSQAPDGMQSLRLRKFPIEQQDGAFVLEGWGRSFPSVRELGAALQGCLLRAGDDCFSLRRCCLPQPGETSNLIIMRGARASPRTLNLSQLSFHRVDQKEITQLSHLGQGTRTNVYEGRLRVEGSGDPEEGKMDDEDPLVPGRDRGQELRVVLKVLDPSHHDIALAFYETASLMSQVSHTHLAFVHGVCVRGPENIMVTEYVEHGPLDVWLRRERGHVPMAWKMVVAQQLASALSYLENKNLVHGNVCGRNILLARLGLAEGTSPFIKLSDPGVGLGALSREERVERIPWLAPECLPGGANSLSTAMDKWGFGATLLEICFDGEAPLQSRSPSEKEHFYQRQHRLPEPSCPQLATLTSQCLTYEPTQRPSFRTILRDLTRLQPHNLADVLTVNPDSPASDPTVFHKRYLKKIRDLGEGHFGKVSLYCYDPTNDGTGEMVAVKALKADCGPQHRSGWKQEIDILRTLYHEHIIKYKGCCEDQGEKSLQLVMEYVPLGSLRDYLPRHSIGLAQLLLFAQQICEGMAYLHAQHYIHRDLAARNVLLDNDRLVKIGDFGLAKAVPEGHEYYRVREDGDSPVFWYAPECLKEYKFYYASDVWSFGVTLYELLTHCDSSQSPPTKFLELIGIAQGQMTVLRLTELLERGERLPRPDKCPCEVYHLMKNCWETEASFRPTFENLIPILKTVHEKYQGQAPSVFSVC
ERK1, sequence (P27361 whole entry, species assumed): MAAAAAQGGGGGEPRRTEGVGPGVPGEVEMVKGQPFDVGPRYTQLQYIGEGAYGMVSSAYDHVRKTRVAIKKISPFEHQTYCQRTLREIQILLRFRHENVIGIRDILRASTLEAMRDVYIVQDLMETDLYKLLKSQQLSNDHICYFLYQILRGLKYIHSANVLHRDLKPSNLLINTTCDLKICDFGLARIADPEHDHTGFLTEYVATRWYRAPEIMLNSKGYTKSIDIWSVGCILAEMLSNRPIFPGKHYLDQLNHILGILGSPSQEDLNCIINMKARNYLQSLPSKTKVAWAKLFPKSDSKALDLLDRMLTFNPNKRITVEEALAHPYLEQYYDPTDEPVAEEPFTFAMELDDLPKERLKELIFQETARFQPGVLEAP
PDGFRB, sequence (P09619 33-1106): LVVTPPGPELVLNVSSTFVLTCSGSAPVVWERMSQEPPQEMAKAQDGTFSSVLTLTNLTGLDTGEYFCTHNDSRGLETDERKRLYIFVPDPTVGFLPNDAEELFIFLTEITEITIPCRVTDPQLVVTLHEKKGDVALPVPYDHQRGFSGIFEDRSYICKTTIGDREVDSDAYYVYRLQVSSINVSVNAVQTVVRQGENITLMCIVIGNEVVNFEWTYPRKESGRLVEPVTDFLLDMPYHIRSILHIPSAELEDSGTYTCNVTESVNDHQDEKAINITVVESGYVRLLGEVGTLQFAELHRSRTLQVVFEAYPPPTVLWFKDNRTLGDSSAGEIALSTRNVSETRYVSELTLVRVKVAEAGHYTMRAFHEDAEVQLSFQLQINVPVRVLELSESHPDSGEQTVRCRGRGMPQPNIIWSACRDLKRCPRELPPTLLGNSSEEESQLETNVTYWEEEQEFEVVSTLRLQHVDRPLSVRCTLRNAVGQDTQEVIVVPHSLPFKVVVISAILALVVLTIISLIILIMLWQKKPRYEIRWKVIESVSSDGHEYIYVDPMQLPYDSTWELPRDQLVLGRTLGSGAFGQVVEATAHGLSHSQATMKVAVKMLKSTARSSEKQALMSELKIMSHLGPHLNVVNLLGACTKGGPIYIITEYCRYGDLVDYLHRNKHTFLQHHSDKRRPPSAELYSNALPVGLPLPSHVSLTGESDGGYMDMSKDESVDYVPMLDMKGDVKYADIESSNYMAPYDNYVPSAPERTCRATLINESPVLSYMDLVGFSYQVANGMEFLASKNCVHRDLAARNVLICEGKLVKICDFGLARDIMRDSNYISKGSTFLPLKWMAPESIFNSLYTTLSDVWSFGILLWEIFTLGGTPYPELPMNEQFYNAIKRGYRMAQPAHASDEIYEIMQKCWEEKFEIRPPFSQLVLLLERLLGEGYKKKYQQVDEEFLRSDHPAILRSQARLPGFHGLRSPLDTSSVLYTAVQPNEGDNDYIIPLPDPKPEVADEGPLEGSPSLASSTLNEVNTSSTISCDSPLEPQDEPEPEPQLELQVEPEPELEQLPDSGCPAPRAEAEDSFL
TYK2(Kin.Dom.1), sequence (P29597 589-875 limits assumed): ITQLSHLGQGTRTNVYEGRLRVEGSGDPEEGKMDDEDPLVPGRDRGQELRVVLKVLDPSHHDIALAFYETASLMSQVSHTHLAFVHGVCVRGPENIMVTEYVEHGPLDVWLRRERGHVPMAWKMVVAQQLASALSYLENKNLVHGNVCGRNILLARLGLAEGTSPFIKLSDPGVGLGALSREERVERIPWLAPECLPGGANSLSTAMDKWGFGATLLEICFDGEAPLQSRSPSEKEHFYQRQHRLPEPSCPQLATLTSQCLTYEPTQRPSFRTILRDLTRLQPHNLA

In the case of CCOC(=O)C[C@@H]1C(O[Si](C)(C)C(C)(C)C)[C@H](n2cnc3c(NC(=O)Nc4ccccc4)ncnc32)O[C@@H]1CNC(=O)NC (stereo partly drawn) [Compound 10], the inhibition at 10 µM (FLT3) is reported as 31%, the inhibition at 10 µM (TXK) is reported as 20 to 29% and the inhibition at 10 µM (ERK2) is reported as 20 to 29%. For the same molecule, the inhibition at 10 µM (BTK) was 35%, the inhibition at 10 µM (CSNK2A2) was 31% and the “percent inhibition of binding” value (ABL1(F317)) was 20-29%. For the same molecule, the inhibition at 10 µM (EPHA5) was 20 to 29%, the inhibition at 10 µM (PIK3CG) was 20 to 29% and the inhibition at 10 µM (MET) was 20 to 29%. It also gave an inhibition at 10 µM (PDGFRB) of 20 to 29%, an inhibition at 10 µM (RPSGKA1) of 40% and an inhibition at 10 µM (EGFR(L747-T751del,Sins)) of 20 to 29%. For the same molecule, the inhibition at 10 µM (PHKG2) was 20 to 29%, the inhibition at 10 µM (TYK2(Kin.Dom.1)) was 20 to 29% and the inhibition at 10 µM (CLK3) was 20 to 29%. The inhibition at 10 µM (CSNK1G2) was 38%, the “% Activity Change” value (RSK3) was 10% and the “% Activity Change” value (RSK2) was −4%. For the same molecule, the “% Activity Change” value (BRAF) was 1%, the “% Activity Change” value (ERK1) was 6% and the “% Activity Change” value (PAK3) was 524%. The inhibition at 10 µM (MAP4K5) was 20 to 29%, the inhibition at 10 µM (TYK2) was 31% and the inhibition at 10 µM (CDK5) was 20 to 29%.

Reference: patent US20100152434A1, “Protein Kinase-binding Nucleosides and Associated Methods” (priority 2007, published 2010)
